Data on two molecules can be found in patent publication US5625032A, “Selective amylin antagonist peptides and uses therefor” (Amylin Pharmaceuticals, Inc., priority 1993, dated 1997).

pIC50: −log10 of the molar value. Entries after “also recorded” stand apart in the source; their conditions may differ. Peptide text beside a SMILES is read from it.

The subject of one test is anesthetized rats. Nature of the test: Infusion studies: inhibition of amylin-induced changes in plasma glucose, lactate, calcium and blood pressure. The test is classed as in vivo. The settings on record: rat, i.v. 1.5 mg bolus then 3 mg/hr for 1.5 h; amylin 50 μg bolus + 50 μg/hour. Here is the method:
Briefly, these studies are performed on anesthetized rats as described in International Application Number PCT/US92/00185, "Amylin Activity Assays", published Jul. 22, 1992. At time -0.5 hours, test rats are infused with a 1.5 mg bolus of the antagonist being tested followed by antagonist infusion at 3 mg/hr for a further 1.5 hours. At time 0 hours, a 50 μg bolus of amylin is administered followed by amylin infusion at 50 μg/hr for the remainder of the experiment. In these tests, the capacity of the antagonist to block the hyperglycemic and hyperlactemic effects of amylin are indicated by the inhibition of amylin-evoked increases in plasma glucose and plasma lactate.
Amylin antagonists were evaluated in vivo for their ability to inhibit amylin-induced elevation of plasma glucose and plasma lactate and amylin-evoked depression of plasma calcium and blood pressure. Male Harlan Sprague Dawley rats (age 75-85 days, mass 300-350 g) fasted 18-20 hours were halothane anesthetized and cannulated via the saphenous vein for infusions/injections and via the femoral artery for sampling of glucose/lactate/calcium and for recording arterial pressure. One and a half hours after surgery they were infused with a 1.5 mg intravenous bolus of test antagonist, followed by an infusion of 3 mg/hour for a further 1.5 hours (t=-0.5→+1.0 hr). At t=0 hours (0.5 hours after the start of the primed/continuous antagonist infusion) a 50 μg intravenous bolus of rat amylin was administered followed by an infusion of 50 μg/hour which continued until the end of the experiment. Blood samples were collected every 10 minutes for the first 2 hours of the test (then less frequently),and mean arterial pressure was continuously recorded from t=-0.5→t=+0.5 hours. Control rats, not administered the test substance, were injected with either saline or with primed/continuous amylin at t=0 hours, as described above.

The next test deals with T1, CGRP receptors (Homo sapiens, UniProt O60894+Q16602).
T1 construct: SK-N-MC cells were homogenized in 50 mM HEPES buffer, pH 7.4, and membranes were collected by centrifugation; endogenous in cells; host or cells: human SK-N-MC neuroblastoma cells (membranes)
T1 sequence (Q16602 23-461): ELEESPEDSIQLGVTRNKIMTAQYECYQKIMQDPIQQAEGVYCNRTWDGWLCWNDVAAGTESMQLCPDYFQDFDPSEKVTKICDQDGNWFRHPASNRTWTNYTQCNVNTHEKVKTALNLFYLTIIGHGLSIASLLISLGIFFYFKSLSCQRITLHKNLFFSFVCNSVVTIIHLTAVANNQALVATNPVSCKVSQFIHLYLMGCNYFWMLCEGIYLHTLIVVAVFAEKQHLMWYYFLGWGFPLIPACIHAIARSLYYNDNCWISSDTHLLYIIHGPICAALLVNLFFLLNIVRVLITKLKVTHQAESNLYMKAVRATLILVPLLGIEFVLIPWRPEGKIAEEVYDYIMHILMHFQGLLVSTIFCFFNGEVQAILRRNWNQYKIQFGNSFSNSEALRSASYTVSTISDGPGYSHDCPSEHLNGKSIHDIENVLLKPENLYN
T1 sequence (O60894 27-148): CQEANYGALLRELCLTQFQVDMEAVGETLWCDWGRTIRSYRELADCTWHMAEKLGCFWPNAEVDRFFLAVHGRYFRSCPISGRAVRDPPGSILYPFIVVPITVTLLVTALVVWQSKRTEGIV
In words: CGRP receptor binding assay (125I human αCGRP, SK-N-MC cell membranes). Conditions: for pIC50: 20 pM 125I human αCGRP; for selectivity for amylin receptors than CGRP receptors: ratio of CGRP receptor IC50 to amylin receptor IC50. From the text:
(§1) As more fully described in Example 9, these assays, like the amylin receptor binding assay, are competition assays which measure the ability of compounds to bind specifically to certain membrane-bound receptors. Preferred sources of membrane preparations used in these assays are human SK-N-MC neuroblastoma cells and human T47D carcinoma cells to measure binding to CGRP and calcitonin receptors, respectively. Compounds being assayed compete for binding to the CGRP receptor preparations with ^125 I human αCGRP and to the calcitonin receptor preparations with ^125 I salmon calcitonin. Competition curves are analyzed as described for amylin receptor binding assays. The affinity of a compound for the amylin receptor relative to the affinity of the compound for the CGRP and calcitonin receptors determines the selectivity of the compound.
(§2) The selectivity of antagonist peptides for the amylin receptor relative to the CGRP and calcitonin receptors was determined by using two in vitro radioligand binding assays and comparing the results obtained to those acquired from the amylin receptor binding assay described in Example 7.
To measure the affinity of the peptides for CGRP receptors, human SK-N-MC neuroblastoma cells were used. […] Van Valen, Piechot & Jurgens, Neuroscience Letters 119:195-198 (1990). SK-N-MC cells were homogenized in 50 mM HEPES buffer, pH 7.4, and membranes were collected by centrifugation for 15 min at 48,000×g. Membranes were suspended at 0.1 to 0.2 mg protein/0.2 ml assay and were incubated in 50 mM HEPES, pH 7.4 containing BSA, bacitracin, and 2 mM MgCl2 with 20 pM ^125 I human αCGRP (labeled at ^10 his, 2000 Ci/mmol) and unlabeled peptide. Additional methods were similar to those described for amylin receptor binding assays in Example 2.

Test [1] has as its target T2, calcitonin receptors (Homo sapiens, UniProt P30988).
T2 construct: Membranes were prepared from confluent cultures of T47D cells as described for SK-N-MC cells; endogenous in cells; host or cells: human T47D carcinoma cells (membranes)
T2 sequence (P30988 25-474): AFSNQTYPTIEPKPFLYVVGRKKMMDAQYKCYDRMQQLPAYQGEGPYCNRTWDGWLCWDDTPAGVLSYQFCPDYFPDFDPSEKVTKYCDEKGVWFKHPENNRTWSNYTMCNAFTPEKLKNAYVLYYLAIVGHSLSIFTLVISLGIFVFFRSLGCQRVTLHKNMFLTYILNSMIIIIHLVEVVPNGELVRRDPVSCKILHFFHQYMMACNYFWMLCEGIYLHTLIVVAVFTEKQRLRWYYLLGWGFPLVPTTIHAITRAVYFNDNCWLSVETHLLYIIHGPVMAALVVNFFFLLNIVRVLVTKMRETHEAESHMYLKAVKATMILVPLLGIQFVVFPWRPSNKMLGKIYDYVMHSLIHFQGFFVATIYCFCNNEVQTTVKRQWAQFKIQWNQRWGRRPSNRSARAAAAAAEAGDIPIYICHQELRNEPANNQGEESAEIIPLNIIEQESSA
Nature of the test: Calcitonin receptor binding assay (125I salmon calcitonin, T47D cell membranes). Conditions: 30 pM 125I salmon calcitonin, 60 minutes, ambient temperature.
Description: as §1, §2
(§3) To determine the affinity of the antagonist peptides for calcitonin receptors, human T47D carcinoma cells were used. […] Findlay et al., Cancer Research 40:4764-4767 (1980). Membranes were prepared from confluent cultures of T47D cells as described for SK-N-MC cells. Membranes were incubated with ^125 I salmon calcitonin (labeled at ^22 tyr, 2000 Ci/mmol) at a concentration of 30 pM for 60 minutes at ambient temperature. Additional methods were similar to those described for amylin receptor binding assays in Example 2. The IC50 of AAP40 (SEQ ID NO:40) for ^125 I salmon calcitonin binding to human T47D cell membranes was 50 nM.

Test [2] deals with calcitonin receptors. The test is described as above. Also on record: species or system human. The settings on record: ratio of calcitonin receptor IC50 to amylin receptor IC50.
Description: as §1, §2, §3

The test system of a further test is rat soleus muscle. In words: Soleus muscle assay: antagonism of 100 nM rat amylin on insulin-stimulated glycogenesis. It counts as cell-based. The settings on record: read-out: IC50, antagonism of amylin effect on insulin-stimulation of glycogenesis in skeletal muscle. Here is the method: Rat soleus muscle preparations have been in use for many years to study muscle glycogen metabolism and are well known in the field. The soleus muscle assay can be used to measure or test for amylin antagonist activity in vitro. Assays of biological activity of amylin or amylin antagonist preparations in the soleus muscle are performed using previously described methods (e.g., Young, A. A. et al., Am. J. Physiol. 263:E274-281 (1992)).
In summary, while amylin or amylin agonist activity is assessed by measuring the incorporation of radiolabelled glucose into glycogen in soleus muscle in response to an amylin or other amylin agonist, amylin antagonist activity is assessed by measuring the reversal of this inhibition in the presence of 100 nM rat amylin and an amylin antagonist. Concentrations of peptide dissolved in carrier-free buffers are determined by quantitative amino acid analysis, as described herein. The ability of compounds to act as antagonists in this assay can also be evaluated by measuring IC50 values. Standard errors are determined by fitting of sigmoidal dose response curves using a four parameter logistic equation (De Lean, A., Munson, P. J., Guardabasso, V. and Rodbard, D. (1988) ALLFIT, Version 2.7, National Institute of Child Health and Human Development, N.I.H. Bethesda, Md., 1 diskette).
These assays involving the stimulation by insulin of glycogen synthesis in rat soleus muscle in vitro were performed as described by Young, A. A. et al., Am. J. Physiol. 263:E274-281 (1992). Rat amylin inhibited the insulin-stimulated incorporation of radiolabelled glucose into glycogen.
The effects of the peptide in the rat soleus muscle glycogenesis system were measured according to the following method. Insulin-stimulated radioglucose incorporation was measured as described above in the presence of 100 nM rat amylin to maximally suppress incorporation. Increasing concentrations of AAP30 (SEQ ID NO:30), AAP37 (SEQ ID NO:37) and AAP40 (SEQ ID NO:40) were added to test their antagonism of amylin, i.e., to increase radioglucose incorporation under these conditions.

For orientation: pIC50 means the IC50 on a negative log10 scale, so that one unit is a factor of ten. As for `CC(=O)N[C@@H](C)C(=O)N[C@H](C(=O)N[C@@H](CCC(N)=O)C(=O)N[C@@H](CCCNC(=N)N)C(=O)N[C@@H](CC(C)C)C(=O)N[C@@H](C)C(=O)N[C@@H](CC(N)=O)C(=O)N[C@@H](CCC(N)=O)C(=O)N[C@@H](CC(C)C)C(=O)N[C@H](C(=O)N[C@@H](CCCNC(=N)N)C(=O)N[C@@H](CC(C)C)C(=O)N[C@@H](CCC(N)=O)C(=O)N[C@H](C(=O)N[C@@H](Cc1ccc(O)cc1)C(=O)N1CCC[C@H]1C(=O)N[C@@H](CCCNC(=N)N)C(=O)N[C@H](C(=O)N[C@@H](CC(N)=O)C(=O)N[C@H](C(=O)NCC(=O)N[C@@H](CO)C(=O)N[C@@H](CC(N)=O)C(=O)N[C@H](C(=O)N[C@@H](Cc1ccc(O)cc1)C(N)=O)[C@@H](C)O)C(C)C)[C@@H](C)O)[C@@H](C)O)C(C)C)[C@@H](C)O` [AAP37] (Ac-ATQRLANQLVRLQTYPRTNVGSNTY-NH2), in the test with anesthetized rats, the “effect on amylin-induced decrease in blood pressure (hypotension)” value was “did block this effect”, the “effect on amylin-induced decrease in plasma calcium (hypocalcemia)” value is “did not inhibit”, the “effect on amylin-induced increase in plasma glucose (hyperglycemia)” value was “suppressed; also recorded: prevent” and the “effect on amylin-induced increase in plasma lactate (hyperlactemia)” value is reported as “suppressed; also recorded: prevent”. At CGRP receptors, the pIC50 was 8.59 and the “selectivity for amylin receptors than CGRP receptors” value came out at 12 fold. For the same molecule, the pIC50 at calcitonin receptors [1] is 6.80. For the same molecule, the “selectivity for amylin receptors than calcitonin receptors” value with calcitonin receptors [2] is 762 fold. The negative-log IC50 (pIC50) in the test on rat soleus muscle was 5.34.

With `CC(=O)N[C@@H](C)C(=O)N[C@H](C(=O)N[C@@H](CCC(N)=O)C(=O)N[C@@H](CC(C)C)C(=O)N[C@@H](CC(C)C)C(=O)N[C@@H](C)C(=O)N[C@@H](CC(N)=O)C(=O)N[C@@H](CCC(N)=O)C(=O)N[C@@H](CC(C)C)C(=O)N[C@H](C(=O)N[C@@H](CCCNC(=N)N)C(=O)N[C@@H](CC(C)C)C(=O)N[C@@H](CCC(N)=O)C(=O)N[C@H](C(=O)N[C@@H](Cc1ccc(O)cc1)C(=O)N1CCC[C@H]1C(=O)N[C@@H](CCCNC(=N)N)C(=O)N[C@H](C(=O)N[C@@H](CC(N)=O)C(=O)N[C@H](C(=O)NCC(=O)N[C@@H](CO)C(=O)N[C@@H](CC(N)=O)C(=O)N[C@H](C(=O)N[C@@H](Cc1ccc(O)cc1)C(N)=O)[C@@H](C)O)C(C)C)[C@@H](C)O)[C@@H](C)O)C(C)C)[C@@H](C)O` [AAP30] (Ac-ATQLLANQLVRLQTYPRTNVGSNTY-NH2; N-terminus assumed), in the test on anesthetized rats, the “effect on amylin-induced decrease in blood pressure (hypotension)” value was “did not inhibit amylin-induced decreases in blood pressure”, the “effect on amylin-induced decrease in plasma calcium (hypocalcemia)” value was “did not inhibit”, the “effect on amylin-induced increase in plasma glucose (hyperglycemia)” value is recorded as “suppressed; also recorded: prevent” and the “effect on amylin-induced increase in plasma lactate (hyperlactemia)” value is given as “suppressed; also recorded: prevent”. Besides, on CGRP receptors, the pIC50 was 7.16 and the “selectivity for amylin receptors than CGRP receptors” value is reported as 43 fold. Also, at calcitonin receptors [1], the pIC50 is 7.44. In addition, the “selectivity for amylin receptors than calcitonin receptors” value in the test with calcitonin receptors [2] was determined as 22 fold. In the test with rat soleus muscle, the pIC50 is 5.95.
